Experimental data as given in ChEMBL document CHEMBL1144152, “Oceanapiside, an antifungal bis-alpha,omega-amino alcohol glycoside from the marine sponge Oceanapia phillipensis” (1999).
Values after ≈ are worked out from the molar mass of the structure shown. Active and inactive are the calls of the source. No cut-off for these calls is given here.

How the values were obtained:
Nakaseomyces glabratus = assay: Antifungal activity against fluconazole-resistant Candida glabrata by broth dilution method; type: functional
Candida albicans [1] = assay: Antifungal activity against Candida albicans ATCC 14503; type: functional, organism-based
Candida albicans [2] = assay: Antifungal activity against fluconazole-resistant Candida albicans UCD-FR1; type: functional, organism-based
Pichia kudriavzevii = assay: Antifungal activity against Candida krusei; type: functional, organism-based
Candida albicans [3] = assay: Antifungal activity against fluconazole-resistant Candida albicans 96-489; type: functional, organism-based

SMILES | MIC (Nakaseomyces glabratus) | Activity (Candida albicans [1]) | Activity (Candida albicans [2]) | Activity (Pichia kudriavzevii) | Activity (Candida albicans [3])
C[C@@H](N)[C@H](O)CCCCCCCCCCCCCCC(=O)CCCCCCC[C@@H](O)[C@@H](N)CO | 3 µg/mL (≈ 6.16 µM) |  |  |  | 
C[C@@H]1[C@H](O)[C@@H](C)/C=C/C=C/C=C/C=C/C=C/C=C/C=C/[C@H](O[C@@H]2O[C@H](C)[C@@H](O)[C@H](N)[C@@H]2O)C[C@@H]2O[C@](O)(C[C@@H](O)C[C@@H](O)[C@H](O)CC[C@@H](O)C[C@@H](O)CC(=O)O[C@H]1C)C[C@H](O)[C@H]2C(=O)O [AMPHOTERICIN B] | 1 µg/mL (≈ 1.08 µM) |  |  |  | 
C[C@@H](N)[C@H](O)CCCCCCCCCCCCCCC(=O)CCCCCCC[C@@H](O[C@@H]1O[C@H](CO)[C@@H](O)[C@H](O)[C@H]1O)[C@@H](N)CO | 10 µg/mL (≈ 15.4 µM) | inactive | inactive | inactive | inactive
